Test results reported in patent US8420657B2 (Novartis AG, priority 2008, dated 2013).

Biological target: T1, GST-JAK2(808-1132) (Homo sapiens, UniProt O60674)
T1 construct: GST-JAK2(808-1132); purchased Invitrogen (Carlsbad, USA) #4288
Assay: JAK2 kinase assay (Caliper mobility shift, LabChip 3000)
Assay type: biochemical
Method in brief: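 Eight-point compound series (final 10–0.003 μM) tested on purchased GST-JAK2 kinase domain (808-1132). Peptide FITC-JAK3tide plus ATP reacted 60 min, 30 °C, then quenched with EDTA; turnover from charge-based separation of substrate and product.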

T1 sequence (O60674 808-1132): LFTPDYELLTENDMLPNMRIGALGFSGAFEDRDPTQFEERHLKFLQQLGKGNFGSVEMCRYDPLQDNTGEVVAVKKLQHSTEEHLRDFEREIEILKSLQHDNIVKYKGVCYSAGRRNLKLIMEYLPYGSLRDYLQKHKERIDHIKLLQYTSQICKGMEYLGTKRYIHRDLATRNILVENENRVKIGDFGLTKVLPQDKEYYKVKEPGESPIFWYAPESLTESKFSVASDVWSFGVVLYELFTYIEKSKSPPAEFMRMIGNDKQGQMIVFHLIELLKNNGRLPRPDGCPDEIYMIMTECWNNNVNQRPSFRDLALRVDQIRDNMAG

SMILES | IC50 [nM]
CC(C)(C)OC(=O)N1CCC(n2cc(Nc3ncc4ccn(-c5cc(F)c(CN6CCOCC6)c(F)c5)c4n3)cn2)CC1 [Example 320, 4-{4-[7-(3,5-Difluoro-4-morpholin-4-ylmethyl-phenyl)-7H-pyrrolo[2,3-d]pyrimidin-2-ylamino]-pyrazol-1-yl}-piperidine-1-carboxylic acid tert-butyl ester] | 9.5
CC(=O)N1CCN(Cc2ccc(Nc3ncc4ccn(-c5cc(F)c(C(=O)N6CCOCC6)c(F)c5)c4n3)cc2)CC1 [Example 323, 1-[4-(4-{7-[3,5-Difluoro-4-(morpholine-4-carbonyl)-phenyl]-7H-pyrrolo[2,3-d]pyrimidin-2-ylamino}-benzyl)-piperazin-1-yl]-ethanone] | 3.2
Cc1ccc(Nc2ncc3ccn(-c4ccc(C(=O)N5CCOCC5)c(F)c4)c3n2)cc1 [Example 324, [2-Fluoro-4-(2-p-tolylamino-pyrrolo[2,3-d]pyrimidin-7-yl)-phenyl]-morpholin-4-yl-methanone] | 26
Cc1ccc(Nc2ncc3ccn(-c4cc(F)c(CN5CCOCC5)c(F)c4)c3n2)cc1 [Example 325, [7-(3,5-Difluoro-4-morpholin-4-ylmethyl-phenyl)-7H-pyrrolo[2,3-d]pyrimidin-2-yl]-p-tolyl-amine] | 25
Cc1ccc(Nc2ncc3ccn(-c4ccc(S(C)(=O)=O)cc4)c3n2)cc1CN1CCOCC1 [Example 328, [7-(4-Methanesulfonyl-phenyl)-7H-pyrrolo[2,3-d]pyrimidin-2-yl]-(4-methyl-3-morpholin-4-ylmethyl-phenyl)-amine] | 16
Fc1cc(-n2ccc3cnc(Nc4ccc(CN5CCN(C6CC6)CC5)cc4)nc32)cc(F)c1CN1CCOCC1 [Example 329, [4-(4-Cyclopropyl-piperazin-1-ylmethyl)-phenyl]-[7-(3,5-difluoro-4-morpholin-4-ylmethyl-phenyl)-7H-pyrrolo[2,3-d]pyrimidin-2-yl]-amine] | 4
O=C(c1ccc(-n2ccc3cnc(Nc4ccc(CN5CCN(C6CC6)CC5)cc4)nc32)cc1F)N1CCOCC1 [Example 330, (4-{2-[4-(4-Cyclopropyl-piperazin-1-ylmethyl)-phenylamino]-pyrrolo[2,3-d]pyrimidin-7-yl}-2-fluoro-phenyl)-morpholin-4-yl-methanone] | 14
CC(C)(C)NS(=O)(=O)c1ccc(-n2ccc3cnc(Nc4ccc(CN5CCN(C6CC6)CC5)cc4)nc32)cc1 [Example 345, N-tert-Butyl-4-{2-[4-(4-cyclopropyl-piperazin-1-ylmethyl)-phenylamino]-pyrrolo[2,3-d]pyrimidin-7-yl}-benzenesulfonamide] | 3.3
CN1CCN(c2ccc(Nc3ncc4ccn(-c5ccc(S(=O)(=O)NC(C)(C)C)cc5)c4n3)cc2)CC1 [Example 348, N-tert-Butyl-4-{2-[4-(4-methyl-piperazin-1-yl)-phenylamino]-pyrrolo[2,3-d]pyrimidin-7-yl}-benzenesulfonamide] | 6.2
CN1CCN(c2ccc(Nc3ncc4ccn(-c5ccc(S(N)(=O)=O)cc5)c4n3)cc2)CC1 [Example 349, 4-{2-[4-(4-Methyl-piperazin-1-yl)-phenylamino]-pyrrolo[2,3-d]pyrimidin-7-yl}-benzenesulfonamide] | 16
Cc1ccc(Nc2ncc3ccn(-c4ccc(S(N)(=O)=O)cc4)c3n2)cc1CN1CCN(C)CC1 [Example 368, 4-{2-[4-Methyl-3-(4-methyl-piperazin-1-ylmethyl)-phenylamino]-pyrrolo[2,3-d]pyrimidin-7-yl}-benzenesulfonamide] | 3.2
Cc1ccc(Nc2ncc3ccn(-c4cc(F)c(CN5CCOCC5)c(F)c4)c3n2)cc1CN1CCNC2(CC2)C1 [Example 373, [3-(4,7-Diaza-spiro[2.5]oct-7-ylmethyl)-4-methyl-phenyl]-[7-(3,5-difluoro-4-morpholin-4-ylmethyl-phenyl)-7H-pyrrolo[2,3-d]pyrimidin-2-yl]-amine] | 4.3
Cc1ccc(Nc2ncc3ccn(-c4ccc(C(=O)N5CCOCC5)c(F)c4)c3n2)cc1CN1CCNC2(CC2)C1 [Example 374, (4-{2-[3-(4,7-Diaza-spiro[2.5]oct-7-ylmethyl)-4-methyl-phenylamino]-pyrrolo[2,3-d]pyrimidin-7-yl}-2-fluoro-phenyl)-morpholin-4-yl-methanone] | 9.9
Cc1ccc(Nc2ncc3ccn(-c4ccc(C(=O)N5CCOCC5)cc4)c3n2)cc1CN1CCN(C)CC1 [Example 437, (4-{2-[4-Methyl-3-(4-methyl-piperazin-1-ylmethyl)-phenylamino]-pyrrolo[2,3-d]pyrimidin-7-yl}-phenyl)-morpholin-4-yl-methanone] | 3.3
Cc1cc(C#N)ccc1-n1ccc2cnc(Nc3ccc(N4CCN(C)CC4)nc3)nc21 [Example 439, 3-Methyl-4-{2-[6-(4-methyl-piperazin-1-yl)-pyridin-3-ylamino]-pyrrolo[2,3-d]pyrimidin-7-yl}-benzonitrile] | 19
CN1CCN(c2ccc(Nc3ncc4ccn(-c5cc(F)c(C#N)c(F)c5)c4n3)cn2)CC1 [Example 445, 2,6-Difluoro-4-{2-[6-(4-methyl-piperazin-1-yl)-pyridin-3-ylamino]-pyrrolo[2,3-d]pyrimidin-7-yl}-benzonitrile] | 43
Cc1cc(Nc2ncc3ccn(-c4cc(F)c(CN5CCOCC5)c(F)c4)c3n2)ccc1CN1CCNCC1 [Example 460, [7-(3,5-Difluoro-4-morpholin-4-ylmethyl-phenyl)-7H-pyrrolo[2,3-d]pyrimidin-2-yl]-(3-methyl-4-piperazin-1-ylmethyl-phenyl)-amine] | ≤ 3
Cc1cc(Nc2ncc3ccn(-c4cc(F)c(CN5CCOCC5)c(F)c4)c3n2)ccc1CN1C[C@@H](C)N[C@@H](C)C1 [Example 461, [7-(3,5-Difluoro-4-morpholin-4-ylmethyl-phenyl)-7H-pyrrolo[2,3-d]pyrimidin-2-yl]-[4-(cis-3,5-dimethyl-piperazin-1-ylmethyl)-3-methyl-phenyl]-amine] | ≤ 3
Cc1ccc(Nc2ncc3ccn(-c4cc(F)c(CN5CCOCC5)c(F)c4)c3n2)cc1Cn1cc(CCO)cn1 [Example 467, 2-(1-{5-[7-(3,5-Difluoro-4-morpholin-4-ylmethyl-phenyl)-7H-pyrrolo[2,3-d]pyrimidin-2-ylamino]-2-methyl-benzyl}-1H-pyrazol-4-yl)-ethanol] | 4.6

Continued, values first:

IC50 [nM] | SMILES
< 3 | CC(=O)N1CCN(Cc2ccc(Nc3ncc4ccn(-c5ccc(S(C)(=O)=O)cc5)c4n3)cc2)CC1 [Example 319, 1-(4-{4-[7-(4-Methanesulfonyl-phenyl)-7H-pyrrolo[2,3-d]pyrimidin-2-ylamino]-benzyl}-piperazin-1-yl)-ethanone]
< 3 | Fc1cc(-n2ccc3cnc(Nc4cnn(C5CCNCC5)c4)nc32)cc(F)c1CN1CCOCC1 [Example 321, [7-(3,5-Difluoro-4-morpholin-4-ylmethyl-phenyl)-7H-pyrrolo[2,3-d]pyrimidin-2-yl]-(1-piperidin-4-yl-1H-pyrazol-4-yl)-amine]
< 3 | CC(=O)N1CCN(Cc2ccc(Nc3ncc4ccn(-c5ccc(C(=O)N6CCOCC6)c(F)c5)c4n3)cc2)CC1 [Example 322, 1-[4-(4-{7-[3-Fluoro-4-(morpholine-4-carbonyl)-phenyl]-7H-pyrrolo[2,3-d]pyrimidin-2-ylamino}-benzyl)-piperazin-1-yl]-ethanone]
< 3 | Cc1ccc(Nc2ncc3ccn(-c4ccc(C(=O)N5CCOCC5)c(F)c4)c3n2)cc1CN1CCN(C)CC1 [Example 326, (2-Fluoro-4-{2-[4-methyl-3-(4-methyl-piperazin-1-ylmethyl)-phenylamino]-pyrrolo[2,3-d]pyrimidin-7-yl}-phenyl)-morpholin-4-yl-methanone]
< 3 | Cc1ccc(Nc2ncc3ccn(-c4ccc(C(=O)N5CCOCC5)c(F)c4)c3n2)cc1CN1CCOCC1 [Example 327, {2-Fluoro-4-[2-(4-methyl-3-morpholin-4-ylmethyl-phenylamino)-pyrrolo[2,3-d]pyrimidin-7-yl]-phenyl}-morpholin-4-yl-methanone]
≤ 3 | CN1CCN(c2ccc(Nc3ncc4ccn(-c5cc(F)c(CN6CCNC(=O)C6)c(F)c5)c4n3)cc2)CC1 [Example 341, 4-(2,6-Difluoro-4-{2-[4-(4-methyl-piperazin-1-yl)-phenylamino]-pyrrolo[2,3-d]pyrimidin-7-yl}-benzyl)-piperazin-2-one]
≤ 3 | Cc1ccc(Nc2ncc3ccn(-c4cc(F)c(CN5CCNC(=O)C5)c(F)c4)c3n2)cc1CN1CCOCC1 [Example 344, 4-{2,6-Difluoro-4-[2-(4-methyl-3-morpholin-4-ylmethyl-phenylamino)-pyrrolo[2,3-d]pyrimidin-7-yl]-benzyl}-piperazin-2-one]
≤ 3 | O=C1NC(c2ccc(Nc3ncc4ccn(-c5cc(F)c(CN6CCOCC6)c(F)c5)c4n3)cc2)CN2CCCCC12 (stereo not shown) [Example 389, 3-{4-[7-(3,5-Difluoro-4-morpholin-4-ylmethyl-phenyl)-7H-pyrrolo[2,3-d]pyrimidin-2-ylamino]-phenyl}-hexahydro-pyrido[1,2-a]pyrazin-1-one]
≤ 3 | Cc1ccc(Nc2ncc3ccn(-c4cc(F)c(CN5CCOCC5)c(F)c4)c3n2)cc1COC1CNC1 [Example 420, [3-(Azetidin-3-yloxymethyl)-4-methyl-phenyl]-[7-(3,5-difluoro-4-morpholin-4-ylmethyl-phenyl)-7H-pyrrolo[2,3-d]pyrimidin-2-yl]-amine]
≤ 3 | CCc1ccc(-n2ccc3cnc(Nc4ccc(N5CCN(C)CC5)nc4)nc32)cc1 [Example 438, [7-(4-Ethyl-phenyl)-7H-pyrrolo[2,3-d]pyrimidin-2-yl]-[6-(4-methyl-piperazin-1-yl)-pyridin-3-yl]-amine]
≤ 3 | O=S1(=O)CCN(Cc2c(F)cc(-n3ccc4cnc(Nc5ccnc(N6CCNC7(CC7)C6)c5)nc43)cc2F)CC1 [Example 442]
≤ 3 | Cc1ccc(Nc2ncc3ccn(-c4cc(F)c(CN5CCOCC5)c(F)c4)c3n2)cc1CN1CCC2(CCN(C)C2)C1 (stereo not shown) [Example 450, [7-(3,5-Difluoro-4-morpholin-4-ylmethyl-phenyl)-7H-pyrrolo[2,3-d]pyrimidin-2-yl]-[4-methyl-3-(7-methyl-2,7-diaza-spiro[4.4]non-2-ylmethyl)-phenyl]-amine]
